Results taken from patent publication US10851069B2, “Compositions of crystallized hydrophobic compounds and methods of making and using same” (Massachusetts Institute of Technology, priority 2016, dated 2020).

Experiments:
[1] = Drug extraction (HPLC) of retrieved capsules, remaining loaded drug; type: in vivo, C57BL/6 mice; conditions: crystalline, co-encapsulated with islets, after 460 days compared to 6 months (180 days)
Method: Calibration curves were obtained on an Agilent LC 1100 Series (Agilent Technologies, CA, USA) equipped with binary pump ([…] Å), auto-sampler (G1313 Å), degasser and photodiode detector (DAD, […] Å). Chemstation was used for system control, data processing and data acquisition for LC. Chromatographic separation was achieved by an analytical Waters Atlantis T3 C18 column (5 μm, 4.6×250 mm). The temperature of column and auto-sampler were kept at 20° C. Stock solution of GW2580 was prepared in dimethyl sulfoxide (DMSO) at a target concentration of 10 mg/ml and appropriate dilutions were made in DMSO to prepare standards (0.25-2500 μg/ml) for calibration curve of GW2580. 10 μl of standard solution was injected and the analytes were eluted by gradient mode using (A) acetonitrile and (B) 0.1% formic acid in water at a constant flow rate of 1 ml/min. The gradient conditions of mobile phase were as follows: 0 min 10% A, 10 min 95% A, 14 min 95% A, 16 min 10% A, 20 min 10% A. Stock solution of curcumin was prepared in dimethyl sulfoxide (DMSO) at a target concentration of 10 mg/ml and appropriate dilutions were made in DMSO to prepare standards (0.05-500 μg/ml) for calibration curve of curcumin. 10 μl of standard solution was injected and the analytes were eluted by gradient mode using (A) acetonitrile and (B) 0.1% formic acid in water at a constant flow rate of 1 ml/min. […]

[2] = test system: STZ-induced diabetic C57BL/6 mice; test: Blood glucose monitoring after transplantation of encapsulated rat islets with or without drug; type: in vivo
Method: Immediately prior to encapsulation, the cultured islets were centrifuged at 1,400 rpm for 1 minute and washed with Ca-free Krebs-Henseleit (KH) Buffer (4.7 mM KCl, 25 mM HEPES, 1.2 mM KH2PO4, 1.2 mM MgSO4×7H2O, 135 mM NaCl, pH≈7.4, ≈290 mOsm). After washing, islets were centrifuged again and all supernatant was aspirated. The islet pellet was then re-suspended in a 2.0% solution of SLG20 alginate dissolved in 0.9% NaCl solution at an islet density of 1,000 islets per 1.0 ml alginate solution. Spheres were crosslinked using a BaCl2 gelling solution and their sizes were controlled using similar procedures as the empty spheres (described above). Immediately after crosslinking, the encapsulated islets were washed 4 times with HEPES buffer and 2 times with RPMI Medium 1640 with 10% HIFBS and cultured overnight at 37° C. for transplantation. As the islets had variable sizes (50-400 μm) and there was an inevitable loss of islets during the encapsulation process, the total number of encapsulated islets were recounted and converted into islet equivalents (IE, normalized to 150 μm size) based on a previously published method (Ricordi, C. et al. Islet isolation assessment in man and large animals. Acta 18 Diabetol. Lat. 27, 185195 (1990)) prior to transplantation.
All animal protocols were approved by the MIT Committee on Animal Care, and all surgical procedures and post-operative care was supervised by MIT Division of Comparative Medicine veterinary staff. Immune-competent male non-diabetic or STZ-induced diabetic C57BL/6 mice (Jackson Laboratory, Bar Harbor, Me.) were anesthetized with 3% isoflurane in oxygen and had their abdomens shaved and sterilized using betadine and isopropanol. Preoperatively, all mice also received a 0.05 mg/kg dose of buprenorphine subcutaneously as a pre-surgical analgesic, along with 0.3 mL of 0.9% saline subcutaneously to prevent dehydration. […]
Blood glucose levels were monitored three times a week following transplantation of islet-containing alginate capsules. […]

COc1ccc(COc2ccc(Cc3cnc(N)nc3N)cc2OC)cc1 [GW2580, 5-[[3-Methoxy-4-[(4-methoxyphenyl)methoxy]phenyl]methyl]-2,4-pyrimidinediamine]
drug remaining in retrieved capsules [1]: significantly larger amount | improvement of normoglycemia duration over controls ([2]; amorphous): 2 fold | improvement of normoglycemia duration over controls ([2]; crystalline): approximately 13 fold | duration of maintained normoglycemia ([2]; crystalline, 0.5 mm alginate microspheres): over 1.25 years
